In one experiment the test system is CD8+ T cells of healthy HLA-A*02+ donors. Kind of experiment: In vitro immunogenicity: T-cell priming with aAPCs loaded with peptide/MHC and anti-CD28, pMHC multimer readout. Format: cell-based, human. As to conditions: HLA-A*02 restricted peptides; Table 6B. An excerpt:
In order to obtain information regarding the immunogenicity of the TUMAPs of the present invention, the inventors performed investigations using an in vitro T-cell priming assay based on repeated stimulations of CD8+ T cells with artificial antigen presenting cells (aAPCs) loaded with peptide/MHC complexes and anti-CD28 antibody.
In order to perform in vitro stimulations by artificial antigen presenting cells loaded with peptide-MHC complex (pMHC) and anti-CD28 antibody, the inventors first isolated CD8+ T cells from fresh HLA-A*02 leukapheresis products via positive selection using CD8 microbeads (Miltenyi Biotec, Bergisch-Gladbach, Germany) of healthy donors obtained from the University clinics Mannheim, Germany, after informed consent. PBMCs and isolated CD8+ lymphocytes were incubated in T-cell medium (TCM) until use consisting of RPMI-Glutamax (Invitrogen, Karlsruhe, Germany) supplemented with 10% heat inactivated human AB serum (PAN-Biotech, Aidenbach, Germany), 100 U/ml Penicillin/100 μg/ml Streptomycin (Cambrex, Cologne, Germany), 1 mM sodium pyruvate (CC Pro, Oberdorla, Germany), 20 μg/ml Gentamycin (Cambrex). 2.5 ng/ml IL-7 (PromoCell, Heidelberg, Germany) and 10 U/ml IL-2 (Novartis Pharma, Nürnberg, Germany) were also added to the TCM at this step. Generation of pMHC/anti-CD28 coated beads, T-cell stimulations and readout was performed in a highly defined in vitro system using four different pMHC molecules per stimulation condition and 8 different pMHC molecules per readout condition.
The purified co-stimulatory mouse IgG2a anti human CD28 Ab 9.3 (Jung et al., 1987) was chemically biotinylated using Sulfo-N-hydroxysuccinimidobiotin as recommended by the manufacturer (Perbio, Bonn, Germany). Beads used were 5.6 μm diameter streptavidin coated polystyrene particles (Bangs Laboratories, Illinois, USA).
pMHC used for positive and negative control stimulations were A*0201/MLA-001 (peptide […] (SEQ ID NO. 289) from modified Melan-A/MART-1) and A*0201/DDX5-001 ([…] from DDX5, SEQ ID NO. 290), respectively.
800.000 beads/200 μl were coated in 96-well plates in the presence of 4×12.5 ng different biotin-pMHC, washed and 600 ng biotin anti-CD28 were added subsequently in a volume of 200 μl. Stimulations were initiated in 96-well plates by co-incubating 1×10^6 CD8+ T cells with 2×10^5 washed coated beads in 200 μl TCM supplemented with 5 ng/ml IL-12 (PromoCell) for 3 days at 37° C. Half of the medium was then exchanged by fresh TCM supplemented with 80 U/ml IL-2 and incubating was continued for 4 days at 37° C. This stimulation cycle was performed for a total of three times. For the pMHC multimer readout using 8 different pMHC molecules per condition, a two-dimensional combinatorial coding approach was used as previously described (Andersen et al., 2012) with minor modifications encompassing coupling to 5 different fluorochromes. Finally, multimeric analyses were performed by staining the cells with Live/dead near IR dye (Invitrogen, Karlsruhe, Germany), CD8-FITC antibody clone SK1 (BD, Heidelberg, Germany) and fluorescent pMHC multimers. For analysis, a BD LSRII SORP cytometer equipped with appropriate lasers and filters was used. Peptide specific cells were calculated as percentage of total CD8+ cells. Evaluation of multimeric analysis was done using the FlowJo software (Tree Star, Oregon, USA). In vitro priming of specific multimer+CD8+ lymphocytes was detected by comparing to negative control stimulations.
Exemplary flow cytometry results after TUMAP-specific multimer staining for peptide of the invention are shown in FIG. 3 together with corresponding negative controls.
With “4 (VLFGELPAL; listed as Homo sapiens) [compound 4]”, the “Wells positive [%]” value was “+ (<20% = +)”. For the substance “9 (SLITGQDLLSV; listed as Homo sapiens) [compound 9]”, the “Wells positive [%]” value is “+ (<20% = +)”. Still for that read-out and setting: in the case of “14 (YTFSGDVQL; listed as Homo sapiens) [compound 14]” it was “+ (<20% = +)”; in that of “17 (GLLPSAESIKL; listed as Homo sapiens) [compound 17]”, “+ (<20% = +)”. Same read-out and setting: in the case of “27 (GLLGKVTSV; listed as Homo sapiens) [compound 27]” it was “+ (<20% = +)”. Take “29 (KMISAIPTL; listed as Homo sapiens) [compound 29]”: the “Wells positive [%]” value is “+ (<20% = +)”.

As to “35 (VIIKGLEEI; listed as Homo sapiens) [compound 35]”, the “Wells positive [%]” value was “+ (<20% = +)”. For the substance “50 (ILLSVLHQL; listed as Homo sapiens) [compound 50]”, the “Wells positive [%]” value is “+ (<20% = +)”. Same read-out and setting: the value for “66 (AMFPDTIPRV; listed as Homo sapiens) [compound 66]” was “+ (<20% = +)”. “77 (ALYGNVQQV; listed as Homo sapiens) [compound 77]”: the “Wells positive [%]” value is recorded as “+ (<20% = +)”.

As to “89 (SLAETIFIV; listed as Homo sapiens) [compound 89]”, the “Wells positive [%]” value is reported as “+ (<20% = +)”. Still for that read-out and setting: in the case of “97 (KLFEKSTGL; listed as Homo sapiens) [compound 97]” it was “+ (<20% = +)”. Same read-out and setting: in the case of “101 (SLLEVNEASSV; listed as Homo sapiens) [compound 101]” it was “+ (<20% = +)”; in that of “102 (GLYPVTLVGV; listed as Homo sapiens) [compound 102]”, “+ (<20% = +)”. The same measure, in the same setting: in the case of “121 (ALYVQAPTV; listed as Homo sapiens) [compound 121]” it was “+ (<20% = +)”. For the substance “157 (ILQDGQFLV; listed as Homo sapiens) [compound 157]”, the “Wells positive [%]” value is given as “+ (<20% = +)”.

Consider “233 (SLFESLEYL; listed as Homo sapiens) [compound 233]”, for which the “Wells positive [%]” value is “+ (<20% = +)”.

“236 (KMSELQTYV; listed as Homo sapiens) [compound 236]”: the “Wells positive [%]” value is “+ (<20% = +)”. For “242 (KLQEEIPVL; listed as Homo sapiens) [compound 242]”, the “Wells positive [%]” value is listed as “+ (<20% = +)”. The same measure, in the same setting: the value for “246 (ALAGIVTNV; listed as Homo sapiens) [compound 246]” was “+ (<20% = +)”; that for “254 (ALGDKFLLRV; listed as Homo sapiens) [compound 254]” was “+ (<20% = +)”.

For the substance “255 (FLMKNSDLYGA; listed as Homo sapiens) [compound 255]”, the “Wells positive [%]” value is recorded as “+ (<20% = +)”. For “257 (KLIDHQGLYL; listed as Homo sapiens) [compound 257]”, the “Wells positive [%]” value is given as “+ (<20% = +)”. The same measure, in the same setting: in the case of “260 (ALNESLVEC; listed as Homo sapiens) [compound 260]” it was “+ (<20% = +)”; in that of “263 (SIIEYLPTL; listed as Homo sapiens) [compound 263]”, “+ (<20% = +)”; in that of “264 (TLHDQVHLL; listed as Homo sapiens) [compound 264]”, “+ (<20% = +)”. On the same count and under the same terms, the value for “267 (YLLDMPLWYL; listed as Homo sapiens) [compound 267]” was “+ (<20% = +)”.

Still in this experiment, the particulars now being: percentage of positive donors; Table 6A.
In the case of “288 (SLYKGLLSV; listed as Homo sapiens) [compound 288]”, the “in vitro immunogenicity: donors” value is “++++ (> = 70% = ++++)”.

The experiment is the same for the next values; noted with them: percentage of positive wells; Table 6A.
“287 (KIQEILTQV; listed as Homo sapiens) [compound 287]”: the “in vitro immunogenicity: wells” value was “+ (<20% = +)”.

The values above are taken from US11155597B2, “Relaxin1 derived peptides for use in immunotherapy” (Immatics Biotechnologies GmbH, priority 2015, dated 2021).
